Experiments:
FRET probes = assay: Real-time amplification with desiccated, stabilised reaction mixture with FRET probes after storage (Example 1); format: biochemical, P. falciparum; settings: vs fresh mixture
TaqMan probes = assay: Real-time amplification with desiccated, stabilised reaction mixture with TaqMan probes after storage (Example 2); format: biochemical, P. falciparum; settings: vs fresh mixture
[1] = tested on: Molecular Beacon (MB) probe; assay: Real-time amplification with desiccated, stabilised reaction mixture with Molecular Beacon probe after storage (Example 3); format: biochemical, P. falciparum; settings: vs fresh mixture
Scorpion probes = assay: Real-time amplification with desiccated, stabilised reaction mixture with Scorpion probes after storage (Example 4); format: biochemical, M. tuberculosis; settings: vs fresh mixture
[2] = tested on: reaction mixture with SYBR Green; assay: Real-time amplification with desiccated, stabilised reaction mixture with SYBR Green after storage (Example 5); format: biochemical, oncogenic papillomaviruses; settings: vs fresh mixture
Procedure: To test the efficiency of intercalated fluorophores such as SYBR Green included in desiccated and stabilised reaction mixtures, reaction mixtures were prepared for amplifying a 250 bp fragment corresponding to region E6-E7 of oncogenic papillomaviruses, using the same reagents as described in Example 1. In this case the unit "DNA Engine OPTICON™ 2 System" (MJ Research) was used. […] Also to each phial was added […] of SYBR Green 1 (Molecular probes).
Various tubes were prepared as described above, adding to each the suitable volume of each stabilising mixture shown in Table 1.
In parallel, in order to check the evolution of the activity of the desiccated tubes, DNA samples were amplified using a fresh mixture in the same amplification conditions.
The result of the amplification reaction was analysed in every case by inspecting the fluorescence curve and determining the crossing point, following the instructions of the equipment software, for each reaction tube both fresh and desiccated and stabilised. […] The samples of patients infected with oncogenic HPV gave positive results in every case, while patients infected with non-oncogenic HPV, or not infected with HPV, gave negative results in every case.

[3] = tested on: DTCS Quick Start Master Mix; assay: Sequencing reaction with desiccated, stabilised mixture with fluorescent terminators after storage (Example 6); format: biochemical, human papillomavirus; settings: vs fresh mixture
Procedure: To test the possibility of gelling reaction mixtures for sequencing nucleic acids the CEQ 200 Dye Terminator Cycle Sequencing (DTCS) Quick Start Kit (Beckman Coulter) was employed, which uses a PCR sequencing system in a single tube by incorporating four different fluorescent terminators. The sequencing reactions were later analysed in a CEQ 2000 XL DNA Analysis System (Beckman Coulter) capillary electrophoresis automatic sequencing system.
Reaction mixtures were prepared containing 4 microlitres of DTCS Quick Start Master Mix, 1 microlitre of universal primer M13-17 and the suitable volume of each stabilising mixture shown in Table 1.
In parallel, in order to check the evolution of the activity of the desiccated and stabilised tubes, the same plasmid was sequenced using a fresh sequencing mixture in standard conditions. Finally, the sequencing reactions were analysed in the CEQ 200XL system following the supplier's instructions.

[4] = tested on: oligonucleotides chemically modified by including biotin and/or digoxygenin groups; assay: Amplification with desiccated biotin/digoxygenin oligonucleotides and colorimetric ELISA plate assay (Example 7); format: biochemical, oncogenic HPV; settings: vs fresh mixture
Procedure: To do so, 4 oligonucleotides were designed that hybridised with the genome of region E6-E7 of oncogenic HPV species.
To do so, an ELISA microplate with a high-binding capacity to streptoavidin (Biospa) was activated following a standard fixing protocol. Then, after blocking the plate by incubation with gelatine, the amplified products of the stabilising mixtures 1, 2 and 3 described in Example 7.A were analysed by a colorimetry assay according to the following experimental process: • A.- Amplification products using an onligonucleotide marked with digoxygenin (mixture 1 in Example 7.A). The biotinated probe A11 was fixed to the plate and the amplified product was hybridised. […] The amplification product was fixed to the plate with the first biotinilate and then hybridised with the first A12 marked with digoxygenin.

[5] = tested on: streptoavidin conjugated with HRP (Str-HRP) and anti-digoxygenin conjugated with alkaline phospatase (anti-DIG-AP); assay: Colorimetric ELISA plate activity test of desiccated, stabilised conjugates (Example 8); format: biochemical, HPV 16; settings: vs fresh mixture
Procedure: In 0.2 ml amplification tubes were added 100 microlitres of a 1/250 dilution in a blocking solution of the conjugate Str-HRP (Biospa). In parallel, 0.2 ml phials were prepared in which 100 microlitres were added of a 1/250 dilution in a blocking solution of anti-DIG-AP (Sigma).
For the activity assay of the conjugate anti-DIG-AP an ELISA plate was used in which the dimples had been previously coated with streptoavidin. For the activity assay of conjugate Str-HRP a plate was used instead with dimples previously coated with anti-DIG antibodies. The amplified products were incubated in each plate to allow the immobilisation of the amplicons in the plate.

antidigoxygenin antibody = assay: Colorimetry assay of stabilised protein immobilised in ELISA microplates (Example 10.2); format: biochemical, HPV; settings: vs fresh mixture
Procedure: To do so each dimple was incubated with 1µg of antidigoxygenin antibody (Roche).
The amplified product was incubated for 30 minutes in the dimples with the antibody immobilised. The amplified products immobilised in the plate by the union of the digoxygenin group of the amplicons and the immobilised anti-digoxygenin group were analysed by a colorimetric assay. […] The colorimetric reaction was finally analysed by measuring absorption at 415 nm.

[6] = tested on: nucleic acids immobilised in modified glasses; assay: Colorimetric assay of stabilised nucleic acids immobilised in modified glasses (Example 10.3); format: biochemical, HPV 16; settings: vs fresh mixture
Procedure: Approach 1. Stabilisation of supports with previously fixed nucleic acids. HPV specific probes were fixed to glass supports pre-treated with polylysiun, aldehyde, epoxy, superepoxy and silane. To do so, in each support slide 1 microlitre spots were applied of the solution of each oligonucleotide at a concentration of 20 µM in the conditions indicated for each glass format. The slides with the immobilised oligonucleotides were then coated with a thin layer of each of the stabilising mixtures and then desiccated in a vacuum oven at 25°C and 50 mbar pressure.
(§1) Approach 2. Fixation to the slides of the nucleic acids pre-mixed with the stabilising mixtures. A mixture was prepared of each of the probes with the suitable volumes of the stabilising mixtures described in Table 1. Then the mixtures of oligonucleotides were applied to the various slides with the fixing conditions indicated for each glass format.
To test the viability of each slide prepared, a colorimetric assay was performed with formation of precipitate products. To do so, the slides were washed for 5 minutes in PBS 1X at room temperature to eliminate the protective layer. Then the slides were incubated in the presence of an amplified and previously denatured HPV 16 product using the probes A11 and A12.

[7] = tested on: Anti-digoxygenin antibodies; assay: Colorimetric assay of stabilised proteins immobilised in modified glasses (Example 10.4); format: biochemical, P. falciparum; settings: vs fresh mixture
Procedure: To test the possibility of stabilising proteins that have been previously immobilised in pre-treated glass supports, the usual format of microarray systems, two different alternatives were tested as in the previous experiment.
Approach 1. Stabilisation of supports with previously fixed protein. Anti-digoxygenin antibodies were fixed to glass supports pre-treated with aldehyde. To do so, in each support slide 1 microlitre spots were applied of the solution of each protein at a concentration of 30 ng/µl. The slides with the immobilised protein were then coated with a thin layer of each of the stabilising mixtures and then desiccated in a vacuum oven at 25°C and 50 mbar pressure.
as §1, with “protein” for “nucleic acids”, “protein” for “oligonucleotides”
To test the viability of each slide prepared, a colorimetric assay was performed with formation of precipitate products. To do so, the slides were washed for 5 minutes in PBS 1X at room temperature to eliminate the protective layer.

[8] = tested on: probes marked with biotin or digoxygenin groups; assay: Synthesis of digoxygenin-marked probes with desiccated mixtures and molecular hybridisation test (Example 9); settings: vs fresh mixture
[9] = tested on: nucleic acids immobilised in ELISA microplates; assay: Amplification and colorimetric detection with stabilised nucleic acids immobilised in ELISA microplates (Example 10.1); settings: vs fresh mixture
avidin = avidin (Gallus gallus, UniProt P02701); settings: avidin/biotin complex; cited from earlier work
Sequence of avidin (P02701 25-152): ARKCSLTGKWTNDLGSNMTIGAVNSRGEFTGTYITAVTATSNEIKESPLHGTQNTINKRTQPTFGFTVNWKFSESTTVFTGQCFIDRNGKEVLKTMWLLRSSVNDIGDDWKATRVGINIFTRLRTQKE

| SMILES | activity of stabilising mixtures (FRET probes; conserved at T 4 °C) | activity of stabilising mixtures (TaqMan probes; conserved at T 4 °C) | activity of stabilising mixtures ([1]; conserved at T 4 °C) | activity of stabilising mixtures (Scorpion probes; conserved at T 4 °C) | activity of stabilising mixtures ([2]; conserved at T 4 °C) | activity of stabilising mixtures ([3]; conserved at T 4 °C) | activity of stabilising mixtures ([4]; conserved at T 4 °C) | activity of stabilising mixtures ([5]; conserved at T 4 °C) | activity of stabilising mixtures (antidigoxygenin antibody; conserved at T 4 °C) | activity of stabilising mixtures ([6]; conserved at T 4 °C) | activity of stabilising mixtures ([7]; conserved at T 4 °C) | activity of stabilising mixtures ([8]; conserved at T 4 °C) | activity of stabilising mixtures ([9]; conserved at T 4 °C) | other results |
| --- | --- | --- | --- | --- | --- | --- | --- | --- | --- | --- | --- | --- | --- | --- |
| OC[C@H]1O[C@H](OC[C@H]2O[C@H](O[C@]3(CO)O[C@H](CO)[C@@H](O)[C@@H]3O)[C@H](O)[C@@H](O)[C@@H]2O)[C@H](O)[C@@H](O)[C@H]1O [Rafinose] | + (+, weak positive, under 50% of the activity of the fresh mixture) | + (+, weak positive, under 50% of the activity of the fresh mixture) | + (+, weak positive, under 50% of the activity of the fresh mixture) | + (+, weak positive, under 50% of the activity of the fresh mixture) | + (+, weak positive, under 50% of the activity of the fresh mixture) | + (+, weak positive, under 50% of the activity of the fresh mixture) | + (+, weak positive, under 50% of the activity of the fresh mixture) | + (+, weak positive, under 50% of the activity of the fresh mixture) | + (+, weak positive, under 50% of the activity of the fresh mixture) | + (+, weak positive, under 50% of the activity of the fresh mixture) | + (+, weak positive, under 50% of the activity of the fresh mixture) | + (+, weak positive, under 50% of the activity of the fresh mixture) | + (+, weak positive, under 50% of the activity of the fresh mixture) | – |
| OC[C@H]1O[C@@](CO)(O[C@H]2O[C@H](CO)[C@@H](O)[C@H](O)[C@H]2O)[C@@H](O)[C@@H]1O [Sucrose] | + (+, weak positive, under 50% of the activity of the fresh mixture) | + (+, weak positive, under 50% of the activity of the fresh mixture) | + (+, weak positive, under 50% of the activity of the fresh mixture) | + (+, weak positive, under 50% of the activity of the fresh mixture) | + (+, weak positive, under 50% of the activity of the fresh mixture) | + (+, weak positive, under 50% of the activity of the fresh mixture) | + (+, weak positive, under 50% of the activity of the fresh mixture) | + (+, weak positive, under 50% of the activity of the fresh mixture) | + (+, weak positive, under 50% of the activity of the fresh mixture) | + (+, weak positive, under 50% of the activity of the fresh mixture) | + (+, weak positive, under 50% of the activity of the fresh mixture) | + (+, weak positive, under 50% of the activity of the fresh mixture) | + (+, weak positive, under 50% of the activity of the fresh mixture) | – |
| OC[C@H]1O[C@H](O[C@H]2O[C@H](CO)[C@@H](O)[C@H](O)[C@H]2O)[C@H](O)[C@@H](O)[C@@H]1O [Trehalose] | ++ (++, positive with 50-90% of the activity of the fresh mixture) | ++ (++, positive with 50-90% of the activity of the fresh mixture) | ++ (++, positive with 50-90% of the activity of the fresh mixture) | – | – | ++ (++, positive with 50-90% of the activity of the fresh mixture) | ++ (++, positive with 50-90% of the activity of the fresh mixture) | – | ++ (++, positive with 50-90% of the activity of the fresh mixture) | ++ (++, positive with 50-90% of the activity of the fresh mixture) | ++ (++, positive with 50-90% of the activity of the fresh mixture) | ++ (++, positive with 50-90% of the activity of the fresh mixture) | ++ (++, positive with 50-90% of the activity of the fresh mixture) | activity of stabilising mixtures (FRET probes; conserved at T 25 °C): + (+, weak positive, under 50% of the activity of the fresh mixture); activity of stabilising mixtures (TaqMan probes; conserved at T 25 °C): + (+, weak positive, under 50% of the activity of the fresh mixture); activity of stabilising mixtures ([1]; conserved at T 25 °C): + (+, weak positive, under 50% of the activity of the fresh mixture); activity of stabilising mixtures (Scorpion probes; conserved at T 25 °C): + (+, weak positive, under 50% of the activity of the fresh mixture); activity of stabilising mixtures ([2]; conserved at T 25 °C): + (+, weak positive, under 50% of the activity of the fresh mixture); activity of stabilising mixtures ([3]; conserved at T 25 °C): + (+, weak positive, under 50% of the activity of the fresh mixture); activity of stabilising mixtures ([4]; conserved at T 25 °C): + (+, weak positive, under 50% of the activity of the fresh mixture); activity of stabilising mixtures ([5]; conserved at T 25 °C): + (+, weak positive, under 50% of the activity of the fresh mixture); activity of stabilising mixtures (antidigoxygenin antibody; conserved at T 25 °C): + (+, weak positive, under 50% of the activity of the fresh mixture); activity of stabilising mixtures ([6]; conserved at T 25 °C): + (+, weak positive, under 50% of the activity of the fresh mixture); activity of stabilising mixtures ([7]; conserved at T 25 °C): + (+, weak positive, under 50% of the activity of the fresh mixture); activity of stabilising mixtures ([8]; conserved at T 25 °C): + (+, weak positive, under 50% of the activity of the fresh mixture); activity of stabilising mixtures ([9]; conserved at T 25 °C): + (+, weak positive, under 50% of the activity of the fresh mixture) |
| O=C(O)CCCC[C@@H]1SC[C@@H]2NC(=O)N[C@@H]21 [biotin, Biotin] | – | – | – | – | – | – | – | – | – | – | – | – | – | dissociation energy (avidin): 21 kcal/mol |
